Source: patent US11952384B2, “Anti-tumor compound and preparation method and use thereof” (DUALITY BIOLOGICS (SUZHOU) CO., LTD., priority 2020, dated 2024)
Like-named read-outs stand apart in the source and are kept apart here.

Tests used:
JIMT-1 cells = experiment: Inhibition of in vitro proliferation of tumor cells by compounds (CTG, 6 days); assay type: cell-based
Procedure: (§1) To test the inhibitory activity of the pharmaceutical compounds on the in vitro proliferation of NCI-N87, JIMT-1 and MBA-MB-231 tumor cells. The cells were treated with the compounds at different concentrations in vitro, and after 6 days of culture, the proliferation of cells was detected using the CTG (CellTiter-Glo® Luminescent Cell Viability Assay, Promega, Cat. No. G7558) reagent, and the in vitro activity of the compounds was evaluated according to the IC50 value.
(§2) In the following, the test for the inhibition of the in vitro proliferation of NCI-N87 cells was taken as an example to illustrate the method of the present application for testing the inhibitory activity of the compounds of the present application on the in vitro proliferation of tumor cells. The method was also applicable to, but not limited to, the test for the inhibitory activity on the in vitro proliferation of other tumor cells. • 1. Culturing of cells: NCI-N87 cells were cultured in RPMI-1640 medium containing 10% FBS. • 2. Preparation of cells: NCI-N87 cells in logarithmic phase were taken, washed with PBS once, and digested with 2-3 mL of trypsin for 2-3 min. After the cells were digested completely, 10-15 mL of cell culture was added to elute the digested cells. The eluate was centrifuged at 1000 rpm for 5 min, and the supernatant was discarded. The resulting cells were resuspended in 10-20 mL of cell culture to obtain a single cell suspension. • 3. Cell plating: the NCI-N87 single cell suspension was mixed well and adjusted to a viable cell density of 6×10^4 cells/mL with cell culture. The cell suspension with the adjusted density was mixed well and added to a 96-well cell culture plate at 50 μL/well. The culture plate was incubated in an incubator for 18 h (37° C., 5% CO2). • 4. Preparation of compounds: the compounds were dissolved in DMSO to obtain stock solutions at an initial concentration of 10 mM. There were 8 concentrations in total for the small molecule compounds: 300 nM, 100 nM, 30 nM, 10 nM, 3 nM, 1 nM, 0.3 nM, and 0.1 nM. • 5. Sample adding: the prepared samples to be detected at different concentrations were added to the culture plate, and two duplicate wells were set for each sample. The culture plate was incubated in an incubator for 6 days (37° C., 5% CO2). • 6. Color developing: the 96-well cell culture plate was taken out, added with the CTG reagent at 50 μL/well, and incubated at room temperature for 10 min. • 7. Plate reading: the 96-well cell culture plate was taken out, placed in a microplate reader, and measured for the chemiluminescence using the microplate reader. Data Analysis
(§3) Data were processed and analyzed using Microsoft Excel and Graphpad Prism 5.
(§4) To test the inhibitory activity of the pharmaceutical compounds on the in vitro proliferation of NCI-N87, JIMT-1 and MBA-MB-231 tumor cells. The cells were treated with compounds at different concentrations in vitro, and after 6 days of culture, the proliferation of cells was detected using CTG (CellTiter-Glo® Luminescent Cell Viability Assay, Promega, Cat. No. G7558) reagents, and the in vitro activity of the compounds was evaluated according to the IC50 value. • 1. Culturing of cells: NCI-N87/JIMT-1/MBA-MB-231 cells were cultured in RPMI-1640 medium containing 10% FBS. • 2. Preparation of cells: NCI-N87/JIMT-1/MBA-MB-231 cells in logarithmic phase were taken, washed with PBS once, and digested with 2-3 mL of trypsin for 2-3 min. After the cells were digested completely, 10-15 mL of cell culture was added to elute the digested cells. The eluate was centrifuged at 1000 rpm for 5 min, and the supernatant was discarded. The resulting cells were resuspended in 10-20 mL of cell culture to obtain a single cell suspension. • 3. Cell plating: the NCI-N87/JIMT-1/MBA-MB-231 single cell suspension was mixed well and adjusted to a viable cell density of 6×10^4 cells/mL with cell culture. […]

BCRP [1] = molecular target: T1, BCRP (Homo sapiens, UniProt Q9UNQ0)
T1 sequence (Q9UNQ0 1-655): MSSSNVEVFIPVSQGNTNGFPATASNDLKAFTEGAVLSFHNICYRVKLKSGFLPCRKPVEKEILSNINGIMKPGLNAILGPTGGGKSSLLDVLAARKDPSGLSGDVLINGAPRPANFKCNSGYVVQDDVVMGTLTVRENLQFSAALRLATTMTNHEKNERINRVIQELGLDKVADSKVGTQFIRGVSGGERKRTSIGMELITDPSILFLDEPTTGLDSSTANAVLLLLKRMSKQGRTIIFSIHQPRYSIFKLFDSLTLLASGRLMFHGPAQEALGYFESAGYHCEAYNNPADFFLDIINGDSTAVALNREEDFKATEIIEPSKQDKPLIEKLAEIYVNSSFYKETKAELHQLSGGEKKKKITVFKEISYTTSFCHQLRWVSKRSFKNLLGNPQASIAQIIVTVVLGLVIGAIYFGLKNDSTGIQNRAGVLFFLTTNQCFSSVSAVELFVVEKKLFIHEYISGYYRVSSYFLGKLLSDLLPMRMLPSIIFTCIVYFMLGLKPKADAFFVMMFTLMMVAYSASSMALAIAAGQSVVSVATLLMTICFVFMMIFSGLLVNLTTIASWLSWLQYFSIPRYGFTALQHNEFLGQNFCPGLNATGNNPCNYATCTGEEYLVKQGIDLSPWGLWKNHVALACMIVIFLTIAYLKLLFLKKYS

BCRP [2] = molecular target: T1, BCRP; experiment: in vitro; details: for efflux ratio at 2 h: Caco-2; for Papp A→B at 2 h: Caco-2, Papp (A-B) (10^−6, cm/s); for Papp B→A at 2 h: Caco-2, Papp (B-A) (10^−6, cm/s)
NCI-N87 cells = experiment: Inhibition of in vitro proliferation of tumor cells by compounds (CTG, 6 days); assay type: cell-based; details: Homo sapiens, NCI-N87, 144 h, read-out: NCI-N87 IC50 (nM)
Procedure: as §1, §2, §3, §4

BCRP [3] = molecular target: T1, BCRP; experiment: Study on transporter substrates in Caco-2 cell model; details: human, Caco-2
[4] = Homo sapiens, JIMT-1, 144 h, read-out: JIMT-1 IC50 (nM)

## CC[C@@]1(O)C(=O)OCc2c1cc1n(c2=O)Cc2c-1nc1cc(F)c(C)c3c1c2[C@@H](NC(=O)C1(O)CCC1)CC3 [compound 1, N-((1S,9S)-9-ethyl-5-fluoro-9-hydroxy-4-methyl-10,13-dioxo-2,3,9,10,13,15-hexahydro-1H,12H-benzo[de]pyrano[3′,4′:6,7]indolizino[1,2-b]quinolin-1-yl)-1-hydroxycyclobutane-1-carboxamide, reference compound]
JIMT-1 cells; Homo sapiens, JIMT-1, 144 h, Table 2 (untitled), Test Example 2.2, small molecule fragments, 6 days of culture, CTG, read-out: JIMT-1 IC50
  IC50: 23.1 nM

## CC[C@@]1(O)C(=O)OCc2c1cc1n(c2=O)Cc2c-1nc1cc(F)c(C)c3c1c2[C@@H](NC(=O)CC(=O)CO)CC3 [P-III-22, N-((1S,9S)-9-ethyl-5-fluoro-9-hydroxy-4-methyl-10,13-dioxo-2,3,9,10,13,15-hexahydro-1H,12H-benzo[de]pyrano[3′,4′:6,7]indolizino[1,2-b]quinolin-1-yl)-4-hydroxy-3-oxobutanamide]
JIMT-1 cells; [4]
  IC50: 12.5 nM

## CC[C@@]1(O)C(=O)OCc2c1cc1n(c2=O)Cc2c-1nc1cc(F)c(C)c3c1c2[C@@H](NC(=O)CCN)CC3 [compound 2, N-((1S,9S)-9-ethyl-5-fluoro-9-hydroxy-4-methyl-10,13-dioxo-2,3,9,10,13,15-hexahydro-1H,12H-benzo[de]pyrano[3′,4′:6,7]indolino[1,2-b]quinolin-1-yl)-3-aminopropionamide, reference compound]
JIMT-1 cells; Table 3, Test Example 2.3, small molecule fragments, 6 days of culture, CTG, read-out: JIMT-1 IC50
  IC50: 36.2 nM

## CC(C)NCC(O)COc1cccc2ccccc12 (centres unmarked) [Propranolol]
BCRP [1]; Caco-2
  BCRP substrate: No
BCRP [2]
  efflux ratio at 2 h: 1.09
  Papp A→B at 2 h: 17.3 ×10⁻⁶ cm/s
  Papp B→A at 2 h: 18.9 ×10⁻⁶ cm/s
BCRP [2]; Caco-2, Recovery rate (%) AP-BL
  recovery at 2 h: 62.2%
BCRP [2]; Caco-2, Recovery rate (%) BL-AP
  recovery at 2 h: 82.4%

## CCCC(O)CC(=O)N[C@H]1CCc2c(C)c(F)cc3nc4c(c1c23)Cn1c-4cc2c(c1=O)COC(=O)[C@]2(O)CC (stereo partly drawn) [P-III-27, N-((1S,9S)-9-ethyl-5-fluoro-9-hydroxy-4-methyl-10,13-dioxo-2,3,9,10,13,15-hexahydro-1H,12H-benzo[de]pyrano[3′,4′:6,7]indolizino[1,2-b]quinolin-1-yl)-3-hydroxyhexanamide]
NCI-N87 cells
  IC50: 3 nM

## CC[C@@]1(O)C(=O)OCc2c1cc1n(c2=O)Cc2c-1nc1cc(F)c(C)c3c1c2[C@@H](NC(=O)C(C)C(C)O)CC3 (stereo partly drawn) [compound 4, N-((1S,9S)-9-ethyl-5-fluoro-9-hydroxy-4-methyl-10,13-dioxo-2,3,9,10,13,15-hexahydro-1H,12H-benzo[de]pyrano[3′,4′:6,7]indolizino[1,2-b]quinolin-1-yl)-3-hydroxy-2-methylbutanamide, reference compound]
JIMT-1 cells; [4]
  IC50: 32.3 nM

## CC[C@@]1(O)C(=O)OCc2c1cc1n(c2=O)Cc2c-1nc1cc(F)c(C)c3c1c2[C@@H](NC(=O)CCS)CC3 [P-III-2, N-((1S,9S)-9-ethyl-5-fluoro-9-hydroxy-4-methyl-10,13-dioxo-2,3,9,10,13,15-hexahydro-1H,12H-benzo[de]pyrano[3′,4′:6,7]indolizino[1,2-b]quinolin-1-yl)-3-mercaptopropanamide]
JIMT-1 cells; [4]
  IC50: 108 nM
NCI-N87 cells
  IC50: 108 nM

## CC(C)c1nc(N(C)S(C)(=O)=O)nc(-c2ccc(F)cc2)c1/C=C/[C@@H](O)C[C@@H](O)CC(=O)O [Rosuvastatin, rosuvastatin, reference compound]
BCRP [1]; Caco-2
  BCRP substrate: Yes
  Papp (A-B) (10^−6, cm/s): 0.45 10^−6, cm/s
  Papp (B-A) (10^−6, cm/s): 3.15 10^−6, cm/s
BCRP [1]; human, Caco-2, 2 h
  Efflux ratio: 6.96
BCRP [2]
  efflux ratio at 2 h: 81.2
  Papp A→B at 2 h: 0.12 ×10⁻⁶ cm/s
  Papp B→A at 2 h: 9.52 ×10⁻⁶ cm/s
BCRP [3]; Caco-2, Recovery rate (%) AP-BL, KO143 −
  recovery at 2 h: 98.5%
BCRP [3]; Caco-2, Recovery rate (%) BL-AP, KO143 −
  recovery at 2 h: 96.8%
BCRP [3]; Caco-2, with KO143 (concentration not stated), Recovery rate (%) AP-BL, KO143 +
  recovery at 2 h: 95.8%
BCRP [3]; Caco-2, with KO143 (concentration not stated), Recovery rate (%) BL-AP, KO143 +
  recovery at 2 h: 97.1%

## CC[C@@]1(O)C(=O)OCc2c1cc1n(c2=O)Cc2c-1nc1cc(F)c(C)c3c1c2[C@@H](NC(=O)C1CCCC(O)C1)CC3 (stereo partly drawn) [P-II-22, N-((1S,9S)-9-ethyl-5-fluoro-9-hydroxy-4-methyl-10,13-dioxo-2,3,9,10,13,15-hexahydro-1H,12H-benzo[de]pyrano[3′,4′:6,7]indolizino[1,2-b]quinolin-1-yl)-3-hydroxycyclohexane-1-carboxamide]
JIMT-1 cells; [4]
  IC50: 3.2 nM

## CC[C@@]1(O)C(=O)OCc2c1cc1n(c2=O)Cc2c-1nc1cc(F)c(C)c3c1c2[C@@H](NC(=O)CCO)CC3 [compound 3, N-((1S,9S)-9-ethyl-5-fluoro-9-hydroxy-4-methyl-10,13-dioxo-2,3,9,10,13,15-hexahydro-1H,12H-benzo[de]pyrano[3′,4′:6,7]indolizino[1,2-b]quinolin-1-yl)-3-hydroxypropanamide, reference compound]
JIMT-1 cells; Homo sapiens, JIMT-1, 144 h, Table 3, Test Example 2.3, small molecule fragments, 6 days of culture, CTG, read-out: JIMT-1 IC50
  IC50: 81.2 nM
